The values below come from patent US11116778B2, “Prodrugs of ALOX-15 inhibitors and methods of using the same” (EMPIRICO INC., priority 2019, dated 2021).

Molecules are shown by their SMILES. Like-named read-outs stand apart in the source and are kept apart here.

Data set [1] is described as follows: Solubility assessment in water. It is filed as physicochemical. Conditions: for solubility: thermodynamic from solid. The method, then: Water was added slowly to 4.7 mg of compound 5 until 4.7 ml of water was added at which point the phosphate fully dissolved. The pH of the solution was estimated using litmus paper and estimated to be <3. Without a counterion, the molecular weight of the phosphate is 418 m. Therefore, at 1 mg/ml, the concentration is 2.4 mM.
For comparison, compound 3 is soluble to 0.4 μg/ml (Han et al FASEB J. 2017 31(2):491-504), which at a molecular weight of 308 is 1.3 μM.
Compound 5 was suspended in water (at weight to give a final concentration of 10 mM) and then 2 eq NaHCO3 was added.

Data set [2] concerns the target T1, 15-lipoxygenase in primary peripheral blood eosinophils (Homo sapiens, UniProt P16050).
T1 sequence (P16050 1-662): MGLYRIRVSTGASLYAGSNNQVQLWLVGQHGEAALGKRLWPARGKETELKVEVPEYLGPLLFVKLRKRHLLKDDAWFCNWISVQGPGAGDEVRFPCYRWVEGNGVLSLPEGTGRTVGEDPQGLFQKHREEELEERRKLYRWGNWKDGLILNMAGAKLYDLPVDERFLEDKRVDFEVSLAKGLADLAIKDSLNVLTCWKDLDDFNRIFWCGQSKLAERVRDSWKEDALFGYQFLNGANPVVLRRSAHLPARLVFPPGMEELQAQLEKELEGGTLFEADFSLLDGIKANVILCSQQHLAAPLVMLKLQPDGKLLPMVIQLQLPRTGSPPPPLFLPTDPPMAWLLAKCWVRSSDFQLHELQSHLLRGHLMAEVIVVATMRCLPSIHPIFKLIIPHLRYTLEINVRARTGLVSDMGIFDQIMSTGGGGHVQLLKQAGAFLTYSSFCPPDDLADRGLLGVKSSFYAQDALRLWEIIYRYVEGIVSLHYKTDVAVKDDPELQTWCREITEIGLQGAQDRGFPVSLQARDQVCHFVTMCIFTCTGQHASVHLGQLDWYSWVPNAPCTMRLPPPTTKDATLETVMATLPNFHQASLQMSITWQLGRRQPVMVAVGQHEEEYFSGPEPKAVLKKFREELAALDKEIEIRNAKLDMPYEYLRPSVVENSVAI
Kind of data set: Inhibition of 15-lipoxygenase in human primary eosinophils, 15(S)-HETE ELISA. The following applies: 3 μM arachidonic acid. A general note: In an ELISA, binding on a coated surface is turned into a signal by an enzyme label.
Experimental: Primary peripheral blood eosinophils from 2 separate donors (StemExpress) were thawed from frozen and allowed to recover in growth media for 4 hours at 37° C. Cells were washed with Hank's Balanced Salt Solution, then aliquoted into 96 well round bottomed plate at 1*10^5 cells/well, 200 μL/well. […] Arachidonic acid was added to final concentration of 3 μM and experiment started. At 1 hour post-treatment the supernatant was collected and 15(S)-HETE was quantified by ELISA (Cayman Chemical) according to manufacturer's recommended protocol. Comparisons were made between the cells treated with the test compounds and cells treated with vehicle only.

Data set [3] deals with T1, 15-lipoxygenase in primary peripheral blood eosinophils. Kind of data set: Inhibition of 15-lipoxygenase in human primary eosinophils with short-term exposure, 15-HETE LC-MS/MS. The following applies: 10 μM for 30 minutes, 3 μM arachidonic acid, 5 minutes.
Experimental: Two independent experiments were performed in which primary peripheral blood eosinophils (StemExpress) were thawed from frozen and allowed to recover in growth media for 4 hours at 37° C. […] Arachidonic acid was added to final concentration of 3 μM and experiment started. At 5 minutes post-treatment, the entire reaction was quenched with an equal volume of extraction buffer (methanol, 60 mM ascorbic acid, 0.1% acetic acid) and 15-HETE quantified. Briefly, 15-HETE was quantified using LC-MS/MS (QTrap5500, Applied Biosystems). […] Deuterated 15-HETE (Cayman Chemical) was used as the internal standard. […] Oxidized fatty acids were extracted using liquid/liquid extraction with acetonitrile as a diluent. Reverse chromatography was performed using a Unison UK-C18 column (Imtakt, 50×3 mm i.d., 3 μm, PN: UK-032) using a water/acetonitrile gradient containing 0.05% ammonium hydroxide and 0.1% formic acid.

Regarding `O=C(Nc1ccc(F)cc1Cl)c1nn(COP(=O)(O)O)c(Cl)c1Cl` [compound 5, (4,5-dichloro-3-((2-chloro-4-fluorophenyl)carbamoyl)-1H-pyrazol-1-yl)methyl dihydrogen phosphate], in data set [1] (1 mg/ml in water, estimated using litmus paper), the “pH of the solution” value was less than 3. Also, the “increase in water solubility above compound 3” value in data set [1] (disodium salt) is on record as 7,200 fold. For the same compound, the “further increase in solubility as a sodium salt” value in data set [1] (disodium salt versus free phosphoric acid) worked out at 4 fold. In addition, the “increase in water solubility over compound 3” value in data set [1] (free phosphoric acid) was roughly 1800 fold. Further, the solubility was 1000 µg/mL in data set [1] (free phosphoric acid, 4.7 mg fully dissolved in 4.7 ml water, read-out: solubility in water); no less than 10000 µM in data set [1] (water with 2 eq NaHCO3, aqueous buffer, disodium salt, 2 eq NaHCO3 added, read-out: concentration in water giving a clear solution); 2400 µM in data set [1] (water, free phosphoric acid, at 1 mg/ml, molecular weight 418, read-out: solubility in water, concentration). In addition, the “decrease in 15-HETE production compared to vehicle or ALP alone (FIG. 2)” value is reported as “approximately 60%” in data set [2] (10 μM pretreated 15 minutes with 0.2 U alkaline phosphatase (ALP), 1 hour) and “approximately 40%” in data set [2] (10 μM, 1 hour post-treatment). Moreover, the “less 15-HETE relative to cells treated with vehicle only (FIG. 3)” value in data set [3] (Experiment 1) was “approximately 79%”; in data set [3] (Experiment 2) it was 63%.
